Results on 26 compounds are retold here after patent US20180057505A1, “BICYCLIC HETEROARYL COMPOUNDS USEFUL AS INHIBITORS OF THE PAR-2 SIGNALING PATHWAY” (VERTEX PHARMACEUTICALS INCORPORATED, priority 2015, published 2018).

The IC50 is the point on the concentration scale where inhibition reaches its midpoint. A word on the % inhibition: it is the relative decrease from the control value, in per cent.

The target in experiment [1] is T1, PAR2 (HT-29 cells) (Homo sapiens, UniProt P55085).
T1 construct: host or cells: HT-29
T1 sequence (P55085 26-397): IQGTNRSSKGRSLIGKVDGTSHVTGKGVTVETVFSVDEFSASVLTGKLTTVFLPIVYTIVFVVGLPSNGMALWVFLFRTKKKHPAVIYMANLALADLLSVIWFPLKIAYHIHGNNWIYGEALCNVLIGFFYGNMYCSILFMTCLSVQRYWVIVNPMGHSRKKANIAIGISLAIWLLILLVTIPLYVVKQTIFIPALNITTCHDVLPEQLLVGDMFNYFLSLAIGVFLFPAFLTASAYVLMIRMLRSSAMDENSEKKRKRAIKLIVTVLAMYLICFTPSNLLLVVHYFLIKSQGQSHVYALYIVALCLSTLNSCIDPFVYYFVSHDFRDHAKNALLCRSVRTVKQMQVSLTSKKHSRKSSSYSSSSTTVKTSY
The experiment in a line: Ca FLIPR TETRA assay, ANTAGONIST mode, activator 8 μM SLIGKV. The format is cell-based. The conditions noted are these: HT-29 cells; activator 8 μM SLIGKV; Method A: maximal concentration of antagonist 0.1, 1 or 2 μM. The essentials: (§1)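 Fluorescent Ca2+ dye (calcium 5) loading of overnight-plated HT-29 cells preceded compound addition and a 30 min room-temperature incubation. Responses to the specified activator concentration were then read by FLIPR Tetra in the same plate.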

The subject of experiment [2] is UTP-stimulated Ca2+ response in HT-29 cells. The experiment can be described thus: Ca FLIPR TETRA assay, ANTAGONIST mode, activator 0.6 μM UTP. Conditions: HT-29 cells, activator 0.6 μM UTP. In kind it is cell-based. The essentials:
as §1

The subject of experiment [3] is Thrombin-stimulated Ca2+ response in HT-29 cells. The experiment can be described thus: Ca FLIPR TETRA assay, ANTAGONIST mode, activator 1 U/mL Thrombin. The format is cell-based. The conditions noted are these: HT-29 cells, activator 1 U/mL Thrombin. In outline: as §1
Experiment [4] has as its target T1, PAR2 (HT-29 cells). The experiment in a line: Ca FLIPR TETRA assay, ANTAGONIST mode, activator 3.1 U/mL trypsin. The format is cell-based. Conditions: HT-29 cells; activator 3.1 U/mL trypsin; Method A: maximal concentration of antagonist 0.1, 1 or 2 μM. The essentials: as §1
Experiment [5] has as its system carrageenan induced paw edema. The experiment can be described thus: Rat carrageenan-induced paw edema model. The format is in vivo. Conditions: given 0.5-3 hour before carrageenan. The procedure:
Example 100: In Vivo Pharmacological Evaluation of PAR2 Pathway Inhibitors Subjects and Housing and Rat Carrageenan-Induced Paw Edema Model Male Sprague Dawley rats were housed in groups in a temperature controlled room and were acclimatized in the animal facility for at least three days prior to use. Experiments were performed during the light phase of the cycle. Animals have food and water ad libitum. Peripheral inflammation was induced by intra-plantar administration of 100 ul of a 1% w/volume (in saline) carrageenan solution under isoflurane anesthesia. The degree of swelling was assessed using the plethysmometer at 2-3-4-5-6 h after carrageenan injection. Test compound or vehicle (0.5% MC/0.1% SDS) was systemically administered at the indicated doses in a volume of 5 mL/kg either 0.5-3 hour before carrageenan challenge (Table 4).

As for `CC1(C)CCC(c2cc(C(C)(C)C)c3oc(C(=O)N4CCN(C(=O)[C@H]5CC[C@@](C)(C(=O)O)CC5)CC4(C)C)cc3n2)CC1` [Example I-316], the concentration for half-maximal inhibition (IC50) in experiment [1] was 0.2 nM; in experiment [2] (Homo sapiens) it was above 2000 nM; in experiment [3] (Homo sapiens), above 2000 nM; in experiment [4], 0.2 nM. The “% inhibition” value in experiment [5] (dose 15 mg/kg) amounted to 50%; in experiment [5] (dose 40 mg/kg), 66%; in experiment [5] (dose 100 mg/kg), 81%; in experiment [5] (dose 250 mg/kg), 79%.
With `CC1(C)CCC(c2cc(C(C)(C)C)c3oc(C(=O)N4CCN(c5cccc(C(=O)O)n5)CC4(C)C)cc3n2)CC1` [Example I-449], the IC50 was 0.9 nM in experiment [1], 660 nM in experiment [2] (Homo sapiens), above 1010 nM in experiment [3] (Homo sapiens) and 1.9 nM in experiment [4]. Besides, the “% inhibition” value is recorded as 49% in experiment [5] (dose 40 mg/kg) and 73% in experiment [5] (dose 100 mg/kg).
Regarding `CN1CC(C)(C)N(C(=O)c2cc3nc(-c4ccc(Cl)c(F)c4)cc(C(C)(C)C)c3o2)CCC1=O` [Example I-526], the IC50 is 240 nM in experiment [1], above 2000 nM in experiment [2] (Homo sapiens), above 2000 nM in experiment [3] (Homo sapiens) and 147 nM in experiment [4].
Regarding `CC(C)(C)c1cc(-c2ccc(Cl)c(F)c2)nc2cc(C(=O)N3CCN(C(=O)NS(C)(=O)=O)CC3(C)C)oc12` [Example I-527], the IC50 in experiment [1] is 31 nM; in experiment [2] (Homo sapiens), above 2000 nM; in experiment [3] (Homo sapiens), above 2000 nM; in experiment [4] it was 45 nM.
Consider `Cc1cc(C(=O)O)c(N2CCN(C(=O)c3cc4nc(-c5ccc(Cl)c(F)c5)cc(C(C)(C)C)c4o3)C(C)(C)C2)nn1` [Example I-528], for which the IC50 was 270 nM in experiment [1], above 2000 nM in experiment [2] (Homo sapiens), above 2000 nM in experiment [3] (Homo sapiens) and 250 nM in experiment [4].
On to `CC(C)(C)c1cc(-c2ccc(Cl)c(F)c2)nc2cc(C(=O)N3CCN(c4ccc(-c5nnn[nH]5)cn4)CC3(C)C)oc12` [Example I-529], for which the IC50 in experiment [1] was 1 nM; in experiment [2] (Homo sapiens), above 2000 nM; in experiment [3] (Homo sapiens) it was above 2000 nM; in experiment [4] it was 1.2 nM.
As to `Cn1cnnc1N1CCN(C(=O)c2cc3nc(C4CCC(C)(C)CC4)cc(C(C)(C)C)c3o2)C(C)(C)C1` [Example I-530], the IC50 in experiment [1] is 6.8 nM; in experiment [2] (Homo sapiens), above 2000 nM; in experiment [3] (Homo sapiens), above 2000 nM; in experiment [4], 5 nM.
In the case of `CC(C)(C)c1cc(-c2ccc(Cl)cc2)nc2cc(C(=O)N3CCN(c4ccc(-c5nnn[nH]5)cn4)CC3(C)C)oc12` [Example I-531], the IC50 is 1.5 nM in experiment [1], above 2000 nM in experiment [2] (Homo sapiens), above 2000 nM in experiment [3] (Homo sapiens) and 2.8 nM in experiment [4].
In the case of `Cc1ccc(N2CCN(C(=O)c3cc4nc(-c5ccc(Cl)c(F)c5)cc(C(C)(C)C)c4o3)C(C)(C)C2)nc1-c1nnn[nH]1` [Example I-532], the concentration for half-maximal inhibition (IC50) was 0.3 nM in experiment [1], above 2000 nM in experiment [2] (Homo sapiens), above 2000 nM in experiment [3] (Homo sapiens) and 0.3 nM in experiment [4].
As to `Cc1ccc(N2CCN(C(=O)c3cc4nc(C5CCC(C)(C)CC5)cc(C(C)(C)C)c4o3)C(C)(C)C2)nc1-c1nnn[nH]1` [Example I-533], the half-maximal inhibitory concentration (IC50) in experiment [1] is 0.7 nM; in experiment [2] (Homo sapiens) it was above 2000 nM; in experiment [3] (Homo sapiens) it was above 2000 nM; in experiment [4] it was 1.7 nM.
As to `COc1cc(N2CCN(C(=O)c3cc4nc(-c5ccc(Cl)c(F)c5)cc(C(C)(C)C)c4o3)C(C)(C)C2)ncc1C(=O)O` [Example I-534], the IC50 is 0.2 nM in experiment [1], above 2000 nM in experiment [2] (Homo sapiens), above 2000 nM in experiment [3] (Homo sapiens) and 0.1 nM in experiment [4].
As for `COc1nc(N2CCN(C(=O)c3cc4nc(C5CCC(C)(C)CC5)cc(C(C)(C)C)c4o3)C(C)(C)C2)ccc1C(=O)O` [Example I-535], the IC50 is 2.1 nM in experiment [1], above 2000 nM in experiment [2], above 2000 nM in experiment [3] and 1.2 nM in experiment [4].
Consider `CC(C)(C)c1cc(-c2ccc(Cl)cc2)nc2cc(C(=O)N3CCN(C(=O)[C@@H]4CC[C@H](C(=O)O)C4)CC3(C)C)oc12` [Example I-536], for which the IC50 in experiment [1] was 2.3 nM; in experiment [2] (Homo sapiens) it was above 2000 nM; in experiment [3] (Homo sapiens), above 2000 nM; in experiment [4], 2.2 nM.
In the case of `Cc1ccc(N2CCN(C(=O)c3cc4nc(-c5ccc(Cl)cc5)cc(C(C)(C)C)c4o3)C(C)(C)C2)nc1-c1nnn[nH]1` [Example I-537], the IC50 in experiment [1] is 0.3 nM; in experiment [2] (Homo sapiens), above 2000 nM; in experiment [3] (Homo sapiens), above 2000 nM; in experiment [4], 0.4 nM.
Turning to `Cc1c(C(=O)O)ccnc1N1CCN(C(=O)c2cc3nc(-c4ccc(Cl)c(F)c4)cc(C(C)(C)C)c3o2)C(C)(C)C1` [Example I-538], the IC50 in experiment [1] came to 0.6 nM; in experiment [2] (Homo sapiens), 1470 nM; in experiment [3] (Homo sapiens) it was 1500 nM; in experiment [4], 0.6 nM.
Turning to `CC1(C)CCC(c2cc(C(C)(C)C)c3oc(C(=O)N4CCN(c5ccc(-c6nnn[nH]6)cn5)CC4(C)C)cc3n2)CC1` [Example I-539], the IC50 was 1.5 nM in experiment [1], above 2000 nM in experiment [2], above 2000 nM in experiment [3] and 2.2 nM in experiment [4].
As for `CC(C)(C)c1cc(-c2ccc(Cl)c(F)c2)nc2cc(C(=O)N3CCN(c4cccc(C(=O)NS(C)(=O)=O)n4)CC3(C)C)oc12` [Example I-540], the 50% inhibitory concentration (IC50) in experiment [1] is 0.3 nM; in experiment [2] (Homo sapiens), above 2000 nM; in experiment [3] (Homo sapiens), above 2000 nM; in experiment [4], 0.3 nM.
Turning to `CC(C)(C)c1cc(-c2ccc(Cl)c(F)c2)nc2cc(C(=O)N3CCC(NC(=O)NS(C)(=O)=O)CC3(C)C)oc12` (centres unmarked) [Example I-541], the IC50 is 1.5 nM in experiment [1], above 2000 nM in experiment [2] (Homo sapiens), above 2000 nM in experiment [3] (Homo sapiens) and 1 nM in experiment [4].
Regarding `CC(C)(C)c1cc(-c2ccc(Cl)c(F)c2)nc2cc(C(=O)N3CCN(S(=O)(=O)NC4CC4)CC3(C)C)oc12` [Example I-542], the IC50 in experiment [1] is 32 nM; in experiment [2] (Homo sapiens), above 2000 nM; in experiment [3] (Homo sapiens), above 2000 nM; in experiment [4] it was 28 nM.
For the compound `CC(C)(C)c1cc(-c2ccc(Cl)c(F)c2)nc2cc(C(=O)N3CCN(C(=O)[C@@H]4CC[C@@H]4C(=O)O)CC3(C)C)oc12` [Example I-543], the IC50 in experiment [1] was 0.6 nM; in experiment [2] (Homo sapiens) it was above 2000 nM; in experiment [3] (Homo sapiens), above 2000 nM; in experiment [4], 0.8 nM.
Consider `Cc1ncc(N2CCN(C(=O)c3cc4nc(C5CCC(C)(C)CC5)cc(C(C)(C)C)c4o3)C(C)(C)C2)nc1C(=O)O` [Example I-544], for which the IC50 was 2.5 nM in experiment [1], above 2000 nM in experiment [2] (Homo sapiens), above 2000 nM in experiment [3] (Homo sapiens) and 3.3 nM in experiment [4].
With `CC(C)(C)c1cc(-c2ccc(Cl)c(F)c2)nc2cc(C(=O)N3CCN(C(=O)[C@@H]4CCC[C@@H]4C(=O)O)CC3(C)C)oc12` [Example I-545], the IC50 is 0.6 nM in experiment [1], above 2000 nM in experiment [2] (Homo sapiens), above 2000 nM in experiment [3] (Homo sapiens) and 0.9 nM in experiment [4].
`CC(C)(C)c1cc(-c2ccc(Cl)c(F)c2)nc2cc(C(=O)N3CCN(c4cccc(C(N)=O)n4)CC3(C)C)oc12` [Example I-546]: the IC50 was 5.4 nM in experiment [1], above 2000 nM in experiment [2] (Homo sapiens), above 2000 nM in experiment [3] (Homo sapiens) and 7.4 nM in experiment [4].
As to `CC(C)(C)c1cc(-c2ccc(Cl)c(F)c2)nc2cc(C(=O)N3CCN(C(=O)CC4(C(=O)O)CCCCC4)CC3(C)C)oc12` [Example I-547], the 50% inhibitory concentration (IC50) in experiment [1] was 0.09 nM; in experiment [2] (Homo sapiens), above 2000 nM; in experiment [3] (Homo sapiens), above 2000 nM; in experiment [4], 0.1 nM.
On to `CC(C)(C)c1cc(-c2ccc(Cl)c(F)c2)nc2cc(C(=O)N3CCC(N)CC3(C)C)oc12` (centres unmarked) [Example I-548], for which the IC50 in experiment [1] was 690 nM; in experiment [2] (Homo sapiens) it was 1800 nM; in experiment [3] (Homo sapiens), above 2000 nM; in experiment [4], 640 nM.
Turning to `CNC1CCN(C(=O)c2cc3nc(-c4ccc(Cl)c(F)c4)cc(C(C)(C)C)c3o2)C(C)(C)C1` (centres unmarked) [Example I-549], the IC50 in experiment [1] was 1100 nM; in experiment [2] (Homo sapiens), above 2000 nM; in experiment [3] (Homo sapiens) it was above 2000 nM; in experiment [4], 1400 nM.
